Test results: patent publication US8852876B2, “Label free biosensors and cells” (Corning Incorporated, priority 2008, dated 2014)
*1 amine or outer side, *2 acyl side, *3 side chain or, on linkers, in order; H or OH if unused. Where a SMILES comes first, the peptide text is derived from it. Bridges are numbered along the chain shown (N, C = ends). [ ]: non-standard residue; d: D form. Trp(2-yl) = O=C([C@H](Cc1c([*:3])[nH]c2ccccc12)N[*:1])[*:2]; Leu(4R-OH,5-OH) = C[C@](O)(CO)C[C@H](N)C(=O)O; cisHyp = O=C(O)[C@@H]1C[C@H](O)CN1

Tests used:
quiescent A431 cells = test: GPCR agonist-induced DMR and EGFR transactivation; format: cell-based, human; details: bradykinin 100 nM, carbachol 10 μM, clonidine 1 μM
Method: (§1) Both A431 and CHO-K1 cells were grown in Dulbecco's modified Eagle's medium (DMEM) supplemented with 10% fetal calf serum, 100 μg/ml penicillin, and 100 μg/ml streptomycin. For cell culture, certain numbers of cells (2×10^5 to 1×10^6), either A431 or CHO-K1, were suspended in […] medium were placed in each well of a 96 well Corning Epic Biosensor microplate, and were cultured at 37° C. in air/5% CO2 for certain time until the cell density reached ˜90% and above (unless specified). The resulted cells were termed as “profilerating” cells. The “quiescent” cells were obtained by culturing the profilerating cells of desired confluencies with a medium containing no or little (˜0.1% fetal bovine serum (FBS)) for at least 16 hours.
(§2) During the assays, the cells in 100 μl medium were subject to two 25 μl HBSS buffer containing 20 mM HEPES, pH 7.4, each separated by at least 15 minutes before 50 μl stimulus-containing solution was applied. During all these steps, a parallel angular interrogation system was used to monitor the real time kinetics of cellular responses. For compound effect studies, a modified protocol was used which starts with 50 μl medium, and subject to sequential treatment: 25 μl HBSS buffer twice (each separated by at least 15 minutes), 50 μl compound solution and finally 50 μl stimulus-containing solution.

CHO cells [1] = test: Saponin-permeabilized cell assay for cytoskeleton modulators (LID biosensor); format: cell-based, Chinese hamster; details: saponin 67 ug/ml
Description: The method involves the use of pore-forming reagents (e.g, saponin) to generate permeabilized cells which permit soluble proteins to diffuse away. It is known that treatment of the cells with many pore-forming reagents leads to permeabilized cells. Since intracellular macromolecules are highly organized within the cytoplasm of mammalian cells through direct binding to cytoskeletal elements, the permeabilized cells still retain most of the biological functions of living cells by sequestration of intracellular machinery through the cytoskeleton super-assembled structure, although the saponin-treated cells undergo the loss of some portions of biomacromolecules. However, upon disruption of microfilaments there is a dramatic reduction of protein synthesis accompanied by release of these translation components from the cells. Also, many other sequestered biomacromolecules are released from these permeabilized cells after disrupting the cytoskeleton structure. These further released materials from the permeabilized cells result in the loss in mass; thus resulting in the changes in effective refractive index of the cell layer on the surface of a LID biosensor which can be detected by LID biosensors. Thus, the changes obtained using optical biosensors can be used as an indicator of modulators that interfere with the cytoskeleton structure. In one embodiment, the present methods can be used to screen modulators that interfere with the cytoskeleton structure using the method 2500 shown in FIG. 25. In accordance with method 2500 one can monitor the mass redistribution due to pore formation of cell surface membranes induced by pore-forming reagents such as saponin in living cells 1008 by: (a) providing an optical LID biosensors 1004 (step 2502); (b) placing cells 1008 in a cell medium onto the said sensor 1004 (step 2504); (c) Optionally applying a buffer solution (step 2506); (d) applying a solution containing a compound into the cell mediums located on the top surfaces 1010 of covered optical LID biosensors 1004 (step 2508); applying a solution containing a pore-forming reagent (step 2510); and (e) interrogating the covered optical LID biosensors 1010 to monitor the time dependent optical responses which indicate mass redistributions within the permeabilized cells 1008 (step 2512). A Pore-forming reagent is a chemical or biological compound or composition that can result in the formation of pores in cell surface membranes when the cells are exposed to the reagent.
The pore-forming regents include detergents such as saponin and filipin, or toxin such as digitonin or streptolysin O. It is well known that treatment of the cells with these reagents can result in the pore formation in cell surface membrane; the resulted permeabilized cells can release a certain amount of intracellular material, mainly soluble proteins. However, there are a great number of bio-materials that still stay with these permeabilized cells due to the sequestration by directly binding or association with the cytoskeleton structure. As a matter of fact, these permeabilized cells retain many of the biological functions of living cells such as protein synthesis.
FIG. 50 presents the dose-dependent responses of CHO cells adherent on the surface of a LID sensor in response to saponin as a function of time. After the addition of saponin at different concentrations, a different response is evident. At low concentration, there is almost no response. […]

[2] = test system: EGF-induced response of quiescent A431 cells; test: Effect of compound pretreatment on EGF-induced DMR response; format: cell-based, human; details: for Effect of pretreatment on 32 nM EGF-induced response: quiescent A431 cells
Method: as §1, §2

[3] = biological target: T1, protease activated receptors PAR1 and PAR2 (Homo sapiens, UniProt P25116); format: cell-based; details: 40 unit/ml thrombin; modulators 10 μM
T1 construct: A431 cells which endogenously express PAR1 and PAR2; endogenous in cells; host or cells: A431
T1 sequence (P25116 22-425): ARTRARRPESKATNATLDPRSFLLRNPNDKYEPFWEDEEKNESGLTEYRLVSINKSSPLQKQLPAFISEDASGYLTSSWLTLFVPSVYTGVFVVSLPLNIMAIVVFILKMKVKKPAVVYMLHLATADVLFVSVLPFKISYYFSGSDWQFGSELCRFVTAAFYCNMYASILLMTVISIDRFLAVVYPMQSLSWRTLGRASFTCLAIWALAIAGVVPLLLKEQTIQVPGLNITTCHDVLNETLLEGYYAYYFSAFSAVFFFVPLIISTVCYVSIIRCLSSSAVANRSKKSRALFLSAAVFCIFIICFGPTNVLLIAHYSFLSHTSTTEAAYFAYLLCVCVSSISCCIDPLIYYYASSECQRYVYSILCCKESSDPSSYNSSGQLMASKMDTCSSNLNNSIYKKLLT
Method: (§3) Human epidermoid carcinoma A431 cells (American Type Cell Culture) were grown in Dulbecco's modified Eagle's medium (DMEM) supplemented with 10% fetal bovine serum (FBS), 4.5 g/liter glucose, 2 mM glutamine, and antibiotics. ˜3-7.5×10^4 cells at passage 3 to 5 suspended in 200 μl the DMEM medium containing 10% FBS were placed in each well of a 96 well microplate, and were cultured at 37° C. under air/5% CO2 until ˜95% confluency was reached (˜2-4 days).
(§4) The compound or PAR agonist solutions were made in 1×HBSS in order to match the refractive index between the cell medium and compound solution, thus minimizing the unwanted effect of bulk index change due to the introduction of compound solution which can temporarily overwhelms any DMR signal as it occurs.

[4] = test system: protease activated receptors PAR1 and PAR2; format: cell-based, human; details: 100 or 200 nM trypsin; modulators 10 μM
Method: as §3, §4

CHO cells [5] = test: GPCR agonist-induced mass redistribution (optical LID); format: cell-based, Chinese hamster
Description: These translocations can be located on a surface of an optical LID biosensor as disclosed herein. The particular data shown in FIGS. 52-60 was obtained using an optical waveguide grating sensor system and LID microplates (Nb2O5 plates), manufactured by Corning Incorporated. […] It is known that CHO cells 1008 endogenously express beta adrenergic receptors, alpha2-adrenergic receptors, P2Y receptors, as well as beta-arrestin and GRKs. It is also known that muscarinic receptors are endogenously expressed at very low level in the CHO cells 1008. In this experiment, approximately ˜5×10^4 CHO cells 1008 were placed within each well of a microplate that contained an array of optical LID biosensors 1004. The CHO cells 1008 were then cultured in 150 μl serum medium for 24 hours to ensure that the CHO cells 1008 became adherent to the substrate surface 1010. […] Since muscarinic receptors are endogenously expressed at very low level in CHO cells, oxotremorine M, agonist for muscarinic receptors, served as a control. Each of these agonists was directly applied to a different one of the wells which contained the serum medium. The optical responses were then collected by the optical LID system.

[6] = biological target: T2, rat muscarinic receptor subtype 1 (Rattus norvegicus, UniProt P08482); test: GPCR agonist-induced mass redistribution in M1 CHO cells (optical LID); format: cell-based
T2 construct: expressed in transfected cells; host or cells: CHO (M1 CHO)
T2 sequence (P08482 1-460): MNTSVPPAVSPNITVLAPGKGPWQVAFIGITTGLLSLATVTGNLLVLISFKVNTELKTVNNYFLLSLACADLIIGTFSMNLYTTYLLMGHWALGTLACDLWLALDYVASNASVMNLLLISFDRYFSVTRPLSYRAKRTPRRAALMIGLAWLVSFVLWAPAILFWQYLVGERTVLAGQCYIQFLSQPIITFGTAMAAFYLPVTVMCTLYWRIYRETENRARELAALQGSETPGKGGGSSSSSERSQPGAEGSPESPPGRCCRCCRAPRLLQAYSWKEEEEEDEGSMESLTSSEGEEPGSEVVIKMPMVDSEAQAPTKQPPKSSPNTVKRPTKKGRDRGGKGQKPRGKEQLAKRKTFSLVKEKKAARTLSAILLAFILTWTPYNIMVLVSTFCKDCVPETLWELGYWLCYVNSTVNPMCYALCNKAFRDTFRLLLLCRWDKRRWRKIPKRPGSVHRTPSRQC

Question: With `C[N+](C)(C)CCOC(N)=O` [Carbachol, carbachol] as the compound, how does the “GPCR agonist-induced DMR response curve” value (quiescent A431 cells) read?
Answer: Its value is “responses with almost identical features as those induced by low concentrations (2-8 nM) of EGF”.

Question: `C[C@H]1CCC/C=C/[C@@H]2C[C@H](O)C[C@H]2[C@H](O)/C=C/C(=O)O1` [brefeldin A] was tested. Which “Effect of compound pre-treatment on saponin-induced response (loss of biomaterials)” value (from here on “Effect … (loss of biomaterials)”) (CHO cells [1]) did it give?
Answer: The value was “show no effect on a saponin-induced response”.

Question: Which “Effect of pretreatment on 32 nM EGF-induced response” value [2] does the source give for `C=C1[C@@H](C)[C@H]2[C@H](Cc3ccccc3)NC(=O)[C@]23OC(=O)/C=C/[C@H](O)CCC[C@@H](C)C/C=C/[C@H]3[C@@H]1O` [cytochalasin B] here?
Answer: The value was “totally abolished the N-DMR signal”.

Question: What about the “Effect … (loss of biomaterials)” value (CHO cells [1]) of the same compound?
Answer: The value was “cause increased loss of biomaterials”.

Question: And the “Effect of pretreatment on thrombin-mediated DMR signal” value [3]?
Answer: The value was “much less effective in suppressing the responses”.

Question: What about the “Effect of pretreatment on trypsin-mediated DMR signal” value [4] of the same compound?
Answer: Its value is “much less effective in suppressing the responses”.

Question: `C[N+](C)(C)CC#CCN1CCCC1=O` [oxotremorine M] was tested. Which Agonist-induced optical response (CHO cells [5]; ATP 100 μM, clonidine 10 μM, epinephrine 100 μM, oxotremorine M 10 μM) did it give?
Answer: The Agonist-induced optical response was “caused almost no cell response”.

Question: And the “Ligand-induced response in M1-CHO cells” value ([6]; 10 μM, compared with CHO cells)?
Answer: The value was “significantly larger responses in M1-CHO cells”.

Question: What does the source list for `C[C@@H]1NC(=O)[C@H](C[C@@](C)(O)CO)NC(=O)[C@@H]2Cc3c([nH]c4ccccc34)SC[C@H](NC(=O)[C@@H]([C@H](C)O)NC1=O)C(=O)N1C[C@@H](O)C[C@H]1C(=O)N[C@@H](C)C(=O)N2` [phalloidin] (cyclo(A[dT]C[cisHyp]A[Trp(2-yl)][Leu(4R-OH,5-OH)]); thioether 3-6)?
Answer: Effect of pretreatment on 32 nM EGF-induced response [2]: hardly any effect on the EGF-induced response; Effect of compound pre-treatment on saponin-induced response (loss of biomaterials) (CHO cells [1]): delay the loss of biomaterials in saponin-treated cells; Effect of pretreatment on thrombin-mediated DMR signal [3]: neither a stabilizing polymeric F-actin agent phalloidin nor a microtubule disrupter nocodazole had significant effect; Effect of pretreatment on trypsin-mediated DMR signal [4]: neither a stabilizing polymeric F-actin agent phalloidin nor a microtubule disrupter nocodazole had significant effect

Question: How did the “Effect of pretreatment on 32 nM EGF-induced response” value [2] turn out when `CC[C@]1(O)C[C@@H]2CN(CCc3c([nH]c4ccccc34)[C@@](C(=O)OC)(c3cc4c(cc3OC)N(C)[C@H]3[C@@](O)(C(=O)OC)[C@H](OC(C)=O)[C@]5(CC)C=CCN6CC[C@]43[C@@H]65)C2)C1` [vinblastine] was run?
Answer: The value was “hardly any effect on the EGF-induced response”.

Question: What about the “Effect … (loss of biomaterials)” value (CHO cells [1]) of the same compound?
Answer: Its value is “block the saponin-induced loss of biomaterials from the cells”.

Question: What does the source list for dynamin inhibitory peptide [DIP]?
Answer: Effect of pre-treatment on EGF-induced P-DMR and N-DMR signals ([2]; starved A431 cells, 8 nM EGF, 30-minute pretreatment, GH 0.5 ng/ml, PD98059 0.1 mM, PP1 1 μM, wortmannin 0.1 μM, DIP 50 μM): totally blocks the N-DMR signal, but slightly increases the P-DMR signal with much slower kinetics; Increase of total P-DMR signal in presence vs absence of compound ([2]; starved A431 cells, EGF, DIP 50 μM): 50%; Effect of compound pre-treatment on saponin-induced response (loss of biomaterials) (CHO cells [1]): show no effect on a saponin-induced response; Effect of pre-incubation on NECA-induced response (CHO cells [5]; DIP 50 μM, 45 minutes, NECA 10 μM, CHO): little effect on NECA-induced response; Effect of pre-incubation on clonidine-induced response (CHO cells [5]; DIP 50 μM, 45 minutes, clonidine 10 μM, CHO): almost totally eliminates the clonidine-induced mass distribution response; Effect of pre-incubation on oxotremorine M-induced response (CHO cells [5]; DIP 50 μM, 45 minutes, oxotremorine M 10 μM, CHO): almost totally eliminates the oxotremorine M-induced mass distribution responses in both cell lines; Effect of pre-incubation on NECA-induced response ([6]; DIP 50 μM, 45 minutes, NECA 10 μM, M1 CHO): little effect on NECA-induced response; Effect of pre-incubation on clonidine-induced response ([6]; DIP 50 μM, 45 minutes, clonidine 10 μM, M1 CHO): almost totally eliminates the clonidine-induced mass distribution response; Effect of pre-incubation on oxotremorine M-induced response ([6]; DIP 50 μM, 45 minutes, oxotremorine M 10 μM, M1 CHO): almost totally eliminates the oxotremorine M-induced mass distribution responses in both cell lines
